Data on one molecule can be found in EP0051852A1, “Pyrimido(4,5-b)(1,4)thiazines and process for their preparation” (Stiftung Forschungsinstitut Borstel, priority 1980, dated 1982).

The test has as its system E.coli(mutaflor). As to the kind of experiment: Bacterial growth kinetics, Coulter Counter (total cell count). In kind it is cell-based. Also noted: unit not given here. The following applies: Coulter Counter (Gesamtkeimzahl); 75.0 µmol/l PTZ alone; 37°C, modified Sauton medium. From the text: 2,4-Diamino-5-(3',4',5'-trimehoxybenzvl)-pyrimidins (TMP) können auf ihre eigene und in Kombination potenzierte antimikrobielle Wirkung mit Hilfe der Bakterienvermehrungskinetik wie folgt geprüft werden: • Es werden zu Bakterienkulturen (Beispiel E.coli) in der logarithmischen Wachstumsphase die genannten Inhibitoren allein oder in den oben beschriebenen Kombinationen hinzugefügt. Die Veränderung der Zahl der Bakterien als Funktion der Zeit wird mit einem Coulter Counter (Gesamtkeimzahl) bzw. mit Hilfe der Kolonienzählung (Plattentest,Lebendkeimzahl) ermittelt. Die Vermehrungskurven werden bei Abwesenheit und bei Anwesenheit der Hemmstoffe und ihrer oben beschriebenen Kombinationen ermittelt. Die aus ihnen ermittelten Änderungen in den Vermehrungsgeschwindigkeiten sin^dein Maß für die antibakterielle Wirkung.
TMP wurde 1,5 Stunden später als die anderen Verbindungen der Kultur zugesetzt.

Regarding `Nc1nc(O)c2c(n1)SCC(CO)=N2` [PTZ, 2-Amino-4-hydroxy-6-hydroxymethyl-7H-pyrimido[4,5b][1,4]thiazin], the “beobachtete Vermehrungsgeschwindigkeitskonstanten kbeob.” value is listed as 3.82.
